Experiments:
Type in all cases: cell-based, Human
MDA-MB-231 cells = assay: Proliferation assay; details: 2 h treatment in DMEM pH 6.0 or 7.4, MTS at 48 h
U2OS cells = assay: Proliferation assay; details: 2 h treatment in DMEM pH 6.0 or 7.4, MTS at 48 h
M4A4 cells = assay: Proliferation assay; details: 2 h treatment in DMEM pH 6.0 or 7.4, MTS at 48 h
HeLa cells = system: HeLa cells

Row | Structure (SMILES) | inhibition of cell proliferation / toxicity (MDA-MB-231 cells) | inhibition of cell proliferation / toxicity (MDA-MB-231 cells; listed as Amanitin) | inhibition of cell proliferation / toxicity (U2OS cells) | inhibition of cell proliferation / toxicity (U2OS cells; listed as Amanitin) | inhibition of cell proliferation / toxicity (M4A4 cells) | inhibition of cell proliferation / toxicity (M4A4 cells; listed as Amanitin) | plasma membrane staining with AnnexinV-FITC (HeLa cells)
1 | CC[C@H](C)[C@@H]1NC(=O)CNC(=O)[C@@H]2Cc3c([nH]c4cc(O)ccc34)[S@+]([O-])C[C@H](NC(=O)CNC1=O)C(=O)N[C@@H](CC(N)=O)C(=O)N1C[C@H](O)C[C@H]1C(=O)N[C@@H]([C@@H](C)[C@@H](O)CO)C(=O)N2 [amanitin, α-Amanitin] | no toxicity was observed | no effect on proliferation | no toxicity was observed | no effect on proliferation | no toxicity was observed | no effect on proliferation | 
2 | CN[C@@H]1C[C@H]2O[C@@](C)([C@@H]1OC)n1c3ccccc3c3c4c(c5c6ccccc6n2c5c31)C(=O)NC4 [staurosporine] |  |  |  |  |  |  | stained with AnnexinV-FITC

From paper PMC3580847 (Biochemistry, 2013)
